Molecules are shown by their SMILES.

In the assay the target is MAPK14 (human) (UniProt Q16539). Put plainly: Inhibition of MAPK14 Kinase Activity.
Chain of MAPK14 (human) (Q16539 whole entry, looked up): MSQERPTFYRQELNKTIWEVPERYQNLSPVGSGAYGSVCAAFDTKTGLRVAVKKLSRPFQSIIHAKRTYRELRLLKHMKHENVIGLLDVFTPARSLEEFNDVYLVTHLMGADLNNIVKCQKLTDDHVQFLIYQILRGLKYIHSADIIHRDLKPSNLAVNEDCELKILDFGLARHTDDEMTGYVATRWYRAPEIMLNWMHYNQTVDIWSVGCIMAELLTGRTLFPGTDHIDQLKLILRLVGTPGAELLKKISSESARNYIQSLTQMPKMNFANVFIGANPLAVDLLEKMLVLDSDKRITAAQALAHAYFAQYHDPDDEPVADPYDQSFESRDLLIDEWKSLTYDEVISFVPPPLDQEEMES
For the molecule `Cc1ccccc1-c1ncnc2c1[nH]c(=O)n2-c1ccc(F)cc1F`, the IC50 is 1.6 µM.

On to `Cc1cccc(C)c1-n1c(=O)[nH]c2c(-c3ccccc3Cl)ncnc21`, for which the IC50 was 7.8 µM.

With `O=c1[nH]c2c(-c3ccccc3Cl)ncnc2n1-c1c(F)cccc1F`, the IC50 was 0.9 µM.

The molecule `O=c1[nH]c2c(-c3ccccc3Cl)ncnc2n1-c1ccc(F)cc1F` came in with an IC50 of 2.7 µM.

`O=c1[nH]c2c(-c3ccccc3F)ncnc2n1-c1c(F)cccc1F` returned an IC50 of 7.8 µM.

On to `Cc1ccccc1-c1ncnc2c1[nH]c(=O)n2-c1c(F)cccc1F`, for which the IC50 came out at 0.5 µM.

As for `O=c1[nH]c2c(-c3ccccc3)ncnc2n1-c1c(F)cccc1F`, the IC50 was 17.5 µM.

Turning to `Cc1ccccc1-c1ncnc2c1[nH]c(=S)n2-c1c(C)cccc1C`, the IC50 was determined as 100 µM.

Regarding `COc1ccc(-n2c(=O)[nH]c3c(-c4ccccc4C)ncnc32)c(OC)c1`, the IC50 amounted to 5.2 µM.

`Cc1ccccc1-c1ncnc2c1[nH]c(=O)n2-c1c(C)cccc1C` showed an IC50 of 18.1 µM.

One may read the IC50 as the concentration that gives 50% inhibition. A high value points to weaker potency.
